According to patent publication US5756505A, “N-acylpiperazine derivative, antibacterial drug and anti-ulcer drug” (Shiseido Co., Ltd., priority 1995, dated 1998):

Key:
[1] = cited from earlier work
stress ulcer formation = assay: WIS: Restraint and Water Immersion Stress-Induced Ulcer Inhibition Test; assay type: in vivo, rat (male Crj:SD or Slc:SD); settings: rat; for WIS: ulcer formation inhibitory rate: 100 mg/kg oral, 7 hours stress
Description: WIS: Restraint and Water Immersion Stress-Induced Ulcer Inhibition Test
The degree of inhibition of the stress ulcer formation is tested.
Male Crj:SDor Slc:SD rats (6 to 7-week-old) were fasted overnight, but allowed free access to water. Each group has 5 to 8 of these rats. The sample compound was dissolved or suspended in an aqueous solution of 0.3% sodium carboxymethylcellulose or 0.05% Tween 80 and then was orally administered (100 mg/10 ml/kg). To a control group, the vehicle was administered. 10 minuts later, the rats were placed in a stress cage and immersed to the level of xipfoid process in a water bath (21° C.) for 7 hours. At the end of the stress, the rats were sacrificed by inhalation of ether or carbon dioxide. Then, the stomach of each was removed, inflated by injecting 10 ml of 5% formalin neutral buffer solution, and immersed in 1% formalin neutral buffer solution for 30 minutes or more to be fixed. The stomach was incised along the greater curvature and then the length of each erosion in the glandular portion was determined under dissecting microscope. The sum of the length of erosions per stomach was defined as ulcer index (UI).
The effect obtained when 100 mg/kg of the sample compound had been administered was expressed as ulcer formation inhibitory rate (%) as follows:
ulcer formation inhibitory rate (%)=[1-(UI in sample group/UI in control group)]×100

[2] = MTT: Cell Damaging and Protecting Effect Test; assay type: cell-based, rabbit (male Japanese White); settings: rabbit, gastric mucosal cells, final concentration 10^-4 M, 4 hours; smaller value is better; read-out: MTT: cell damaging rate
From the text: MTT: Cell Damaging and Protecting Effect Test
It is confirmed that there is no toxicity in cell level. Those having a toxicity in cell level are inappropriate as an anti-ulcer drug.
A male Japanese White rabbit (2.5 to 3 kg) was anesthetized to death by Nembutal™ and, immediately thereafter, its stomach was removed. The greater curvature of the stomach was incised so as to remove the stomach contents therefrom. After the mucosal surface was washed with HBSS (Hanks' Balanced Salt Solution), the stomach in ice-cooled HBSS was transferred to a laboratory. Then, after the pyloric antrum was removed, the gastric corpus mucosa was separated by a spatula and then minced into 2 to 3 mm^3 pieces in BME (Basal Medium Eagle). Thereafter, these pieces were shaken at 120 to 130 cycles/minute for 15 minutes at 37° C. in BME 60ml containig 280 U/ml of dispase and 30 to 50 U/ml of collagenase. Here, the concentration of collagenase was appropriately changed for each lot in view of the state of cells. The pieces were washed twice with EBSS (Earle's Balanced Salt Solution) containing 1 mM of EDTA and then shaken in MEM (Minimum Essential Medium) containing 1 mM of EDTA at 37° C. for 5 minutes. Subsequently, they were shaken in the dispase and collagenase having the same concentrations as those mentioned above for 15 minutes so as to remove the supernatant and then further shaken at 37° C. for 50 to 60 minutes at 120 to 130 cycles/minute. Then, after being washed twice with HBSS, Ham F12 containing 2% of Ultrocer G™ was used to attain the concentration of 1×10^6 cells/ml. Thus formed suspension was dispensed in each well of a 96-well plate by 200 μl. The plate was incubated in the atmosphere composed of 5% CO2 and 95% air at 37° C. for three days so as to attain a confluent state and then subjected to MTT assay.
The sample compound was dissolved in DMSO so as to attain a concentration of 10^-2 M and then diluted with HBSS containing 2% of Ultrocer G™ so as to attain a final concentration of 10^-4 M. To each group, which 8 wells were used for, 10 μl of MTT reagent were added immediately after 100 μl of the medium in each well were exchanged for same volume of the resulting solution of the sample compound. After being incubated in an atmosphere composed of 5% CO2 and 95% air at 37° C. for 4 hours, thus formed solution was centrifuged and then its supernatant was discarded. Subsequently, 100 μl of 100% ethanol were added to the residue so as to dissolve MTT formazan. Then, the absorbance (OD: 570 to 630) was measured by a microplate reader. This method utilizes a phenomenon in which MTT is changed to MTT formazan only by mitochondria of living cells so as to change color.
The cell damaging or cell protecting effect of the sample compound at the final concentration of 10^-4 M was expressed as cell damaging rate (%) as follows:
cell damaging rate (%)=[1-(absorbance in sample group/absorbance in control group)]×100
Accordingly, the smaller value is better in the cell damaging rate.

[3] = tested on: isolated gastric fundic gland; assay: CAP: Acid Secretion Inhibition Test In Vitro ([14C]-aminopyrine uptake); assay type: cell-based, rabbit (male Japanese White); settings: Oryctolagus cuniculus, final concentration 10^-5 M, histamine 10^-5 M, rabbit gastric fundic gland; read-out: CAP: acid secretion inhibitory rate
Description: CAP: Acid Secretion Inhibition Test In Vitro
The acid secretion inhibitory activity in a cell level is studied. It can also be used for studying the mechanism of the effect. […]
ii-a) Preparation of isolated gastric fundus gland suspension
First, an isolated gastric fundic gland sample was prepared. Namely, a male Japanese White rabbit (2.5 to 3 kg) was anesthetized to death with Nembutal™ and then the abdomen was incised. Immediately thereafter, the stomach was removed and, after its pyloric and cardiac antrum were severed, incised along its greater curvature into two sheets. The gastric contents adhering to the mucosal surface was washed out with ice-cooled PBS (-) and then carefully washed therein. The gastric wall was spread on a cork board with its mucosal surface facing up and the feed and mucus thereon were completely removed with sterile gauze. The mucosa was separated therefrom by a spatula and then collected in ice-cooled PBS (-). After being washed twice with PBS (-), the mucosa was minced into 2-3mm^3 pieces by scissors. These pieces were further washed twice with a nutrient solution. The nutrient solution comprises 132.4 mM of NaCl, 5.4 mM of KCl, 5 mM of Na2 HPO4 ·12H2 O, 1 mM of NaH2 PO4 ·2H2 O, 1.2 mM of MgSO4, 1 mM of CaCl2, 25 mM of HEPES, 2mg/ml of glucose, and 1 mg/ml of BSA. Into 70 ml of the nutrient solution containing 1 mg/ml of collagenase, minced mucosal pieces were dispersed and intensely stirred in a conical flask with a stirrer at 37° C. for 40 to 60 minutes. During this period, 100% O2 was sprayed on the nutrient solution surface and the pH was appropriately measured such that it was immediately adjusted to pH 7.4, when the value was therebelow, with a base. The nutrient solution was added to the reaction solution so as to attain the total amount of about 200 ml. After being filtered through a mesh, the suspension was divisionally introduced into 50 ml centrifuge tubes and left for 15 minutes such that gastric fundic gland was deposited. The supernatant was repeatedly removed by an aspirator, dispersed in the nutrient solution, and then left such that the gastric fundic gland was washed three times. At this time, without using a pipette, the suspension was alternately introduced into two centrifuge tubes so as to effect dispersion. The number of cells was counted under microscope and adjusted to 1.6×10^6 cells/ml. […]
ii-b) [^14 C]-aminopyrine uptake test
Then, [^14 C]-aminopyrine uptake test was performed. After an Eppendorf tube was weighed, 10 μl (final concentration: 10^-5 M) of histamine dissolved in the above-mentioned nutrient solution, 10 μl (final concentration: 10^-5 M) of the test compound dissolved in DMSO, and 10 μl (final concentration: 0.05 μCi/ml) of [^14 C]-aminopyrine diluted with the nutrient solution were introduced therein and then 970 μl of the isolated gastric fundic gland suspension prepared above were added thereto. Subsequently, this mixture was shaken at 37° C. for 40 minutes at 125 cycles/minute. After being centrifuged for 30 minutes 200 μl of its supernatant was collected into a mini-vial, while the rest was removed by an aspirator. The gland pellet was completely dried as the tube with its lid being opened was kept for one night in a drying oven at 80° C. and then the lid was closed and the weight was determined at room temperature. Then 100 μl of 1N KOH were added thereto and the tube with its lid being closed was treated at 60° C. for 1 to 2 hours so as to dissolve the pellet. Then, the contents thereof were transferred to a mini-vial. Into the mini-vial containing the supernatant or gland pellet, 4 ml of Atomlite™ were added and then the radioactivity was measured by a liquid scintillation counter. Here, after the radioactivity of the gland pellet was corrected by using a sample in which 20 mM of NaSCN were added so as to cancel the hydrogen ion concentration gradient, the integration ratio of aminopyrine specifically trapped by the gland pellet was calculated. […]

Structure (SMILES) | pKa [1] | WIS: ulcer formation inhibitory rate (stress ulcer formation) [%] | cytotoxicity at 4 h, 100 µM [2] [%] | inhibition at 10 µM [3] [%] | anti-ulcer effect (in words) (stress ulcer formation; in vivo)
Cc1c(N(C)C)c(=O)n(-c2ccccc2)n1C [aminopyrine] | 5.0 |  |  |  | 
CC(C)CN1CCN(C(=O)c2ccc(OCc3ccc(F)cc3)c(N)c2)CC1.Cl.Cl [Example 1, 1-[3-amino-4-(4-fluorobenzyloxy)benzoyl]-4-isobutylpiperazine dihydrochloride] |  | 88 |  |  | 
COc1cc(C(=O)N2CCN(CC(C)C)CC2)ccc1OCc1ccc(F)cc1.Cl [Example 7, 1-[4-(4-fluorobenzyloxy)-3-methoxybenzoyl]-4-isobutylpiperazine hydrochloride] |  | 48 | -72 | 100 | 
CC(C)Cc1cc(C(=O)N2CCN(CC(C)C)CC2)ccc1OCc1ccc(C#N)cc1.Cl [Example 11, 1-[4-(4-cyanobenzyloxy)-3-isobutylbenzoyl]-4-isobutylpiperazine hydrochloride] |  | 94 | -77 | 100 | 
CC(C)Cc1cc(C(=O)N2CCN(CCOC(=O)c3ccc4c(c3)OCO4)CC2)ccc1OCc1ccc(F)cc1 [Example 10, 1-[4-(4-fluorobenzyloxy)-3-isobutylbenzoyl]-4-[2-(piperonyloyloxy)ethyl]piperazine] |  | 54 | 34 | 100 | sufficient effects
